From article PMC3878918, “Cathepsin K inhibitors increase distal femoral bone mineral density in rapidly growing rabbits” (BMC Musculoskeletal Disorders, 2013)
Where two headings read alike, the source gives them in different places.

Assays:
rabbit osteoclasts [1] = test: In vitro bone resorption assay, rabbit osteoclasts on bovine bone slices, CTx-I release; format: cell-based
Procedure: The bone resorption assay is a functional in vitro assay that measures Type-I collagen degradation after a three-day incubation of rabbit osteoclasts cultured on bovine bone with varying concentrations of test compound, as previously described. Briefly, long bones isolated from a 10-day-old NZW rabbit were finely minced in alpha-minimal essential medium (α-MEM) (Gibco BRL; Gaithersburg, MD, USA) containing penicillin/streptomycin, pH 7.1 to obtain a cell suspension and 1 × 10^6 cells were seeded onto each 6 mm diameter × 0.22 mm thick bovine bone slice in the same medium containing 2% fetal bovine serum (FBS). After 4 h, the medium was replaced with α-MEM, 2% FBS, 1,25(OH)2D3 10 nM, and test compounds. The cultures were incubated for three days at 37°C in 5% CO2. C-telopeptide of Type-I collagen (CTx-I) released into the medium was measured by the CROSSLAPS Elisa assay (Osteometer Biotech, Herlev, Denmark).

rabbit osteoclasts [2] = test system: rabbit osteoclasts; set-up: method as in PMID 16302795, PMID 18226527; details: three-day incubation, CTx-I release; read-out: IC50 Rabbit bone resorption assay; cited from earlier work
rabbit CatK = details: 2 μM Z-Leu-Arg-AMC as substrate; cited from earlier work
rapidly growing rabbits = test: Rabbit Schenk assay: distal femoral BMD by ex vivo DXA and histology after 10 days' treatment; format: in vivo; details: for increase in DFBMD vs vehicle / Distal femur BMD / DFBMD / % BMD gain / DFBMD of representative DXA image: 10 days; for Distal femur BMD / DFBMD: mean ± SEM; for DFBMD: dose-ranging study; for % BMD gain: vs vehicle; for DFBMD of representative DXA image: single representative femur
Procedure: To characterize the dose of ALN required to show increases in DFBMD, dose-ranging studies were conducted using ALN, administered at doses of 0, 50, 100, 200, and 500 μg/kg (SC, once daily). Seven-week-old rabbits were weight-randomized into groups (n = 8-11 per group). ALN was prepared in deionized water and pH adjusted to 7.2. The injection volume was 0.3 mL per rabbit. Rabbits were treated daily for 10 consecutive days. Rabbits were reweighed on Day 6 and dosing volume was adjusted accordingly. At necropsy, the right femur was excised and stored in 70% ethanol.
Rabbits were treated once daily by oral gavage for 10 consecutive days with vehicle (1% carboxymethylcellulose or 0.5%/0.2% carboxymethylcellulose/SDS), CatK inhibitors, or ALN (100 μg/kg, SC). Several studies were conducted, with each study including vehicle (n = 11–14), multiple dose levels of a CatK inhibitor (n = 13–14 per group), and ALN (n = 8–9). On Day 1, two rabbits from each group receiving CatK inhibitors were bled via the central ear artery (0.5 mL each) at 0, 0.25, 1, 3, 6, 8, and 24 h after dosing. Plasma concentrations of CatK inhibitors were determined in all samples. On Day 11, rabbits were euthanized. Femurs were removed and stored in 70% ethanol for BMD analysis.
Whole right femurs with muscles removed, were immersed in two inches of water in an acrylic box, and positioned with both distal condyles resting on the bottom of the box. The distal 5 cm of the femur was scanned using small animal software in high resolution mode on a Hologic QDR 4500 fan-beam bone densitometer (DXA; Hologic, Inc., Waltham, MA, USA). The distal 3 cm of the femur was analyzed. A region of interest (ROI) beginning one line distal to the distal edge of the femur and centered 70 lines wide and extending 60 lines proximally in the long axis of the bone was applied. Bone mineral content (BMC) and bone area (BAr) were output by DXA software. BMD was calculated as BMC/BAr.
Following ex vivo DXA scanning, the distal one-third of the femur was cut mid-sagitally and then dehydrated, without prior decalcification, in increasing concentrations of ethanol. The right portion was embedded in 80% methylmethacrylate/20% dibutyl phthalate. Parasagittal sections (6 μm) were cut on a Reichert-Jung Polycut sledge microtome (Nussloch, Germany) and mounted on glass slides. A Masson’s trichrome stain was performed to view calcified tissue.

[3] = set-up: method as in PMID 16302795, PMID 18226527; details: rabbit, cited from earlier work; for Cmin / AUC / Cmax: oral; for Cmin: trough at 24 h
growing rats = details: cited from earlier work; for trabecular bone volume in the proximal tibial metaphysis vs untreated rats: growing rats, ten days
weanling rats = details: six weeks of once-weekly treatment; cited from earlier work
human CatK = test system: human CatK; set-up: method as in PMID 19453281; details: cited from earlier work
rat CatK = test system: rat CatK; set-up: method as in PMID 19453281; details: cited from earlier work
mouse CatK = test system: mouse CatK; set-up: method as in PMID 19453281; details: cited from earlier work
[4] = printed in the 3 mg/kg dose row
[5] = printed in the 10 mg/kg dose row

| Structure (SMILES) | IC50 (rabbit osteoclasts [2]) | IC50 (rabbit CatK) | increase in DFBMD vs vehicle (rapidly growing rabbits; 10 mg/kg oral once daily) | Distal femur BMD (rapidly growing rabbits; 10 mg/kg oral once daily) | Cmin ([3]; 10 mg/kg) | AUC ([3]; 10 mg/kg) | Cmax ([3]; 10 mg/kg) | fold more potent in the bone resorption assay than L-833905 (rabbit osteoclasts [1]) | increase in DFBMD vs vehicle (rapidly growing rabbits; 3 mg/kg oral once daily) | Cl ([3]; 1 mg/kg dose) | Cmin ([3]; 1 mg/kg, LOD ~ 1 nM) | AUC ([3]; 1 mg/kg) | Cmax ([3]; 1 mg/kg) | Cmin ([3]; 3 mg/kg) | AUC ([3]; 3 mg/kg) | Cmax ([3]; 3 mg/kg) | also measured |
| --- | --- | --- | --- | --- | --- | --- | --- | --- | --- | --- | --- | --- | --- | --- | --- | --- | --- |
| CC(C)C[C@@H](C(=O)NCC#N)c1cccc(-c2ccc(N3CCNCC3)cc2)c1 [Compound L-833905, (R)-N-(cyanomethyl)-4-methyl-2-(4′-(piperazin-1-yl)-[1,1′-biphenyl]-3-yl)pentanamide] | 149 ± 20 nM | 33 ± 2 nM | 3% | 282.5 ± 5.5 mg/cm^2 | 29 nM | 1.9 μm*hr | 163 nM |  |  |  |  |  |  |  |  |  | fold less potent inhibitor of CatK than L-006235, L-873724 and ODN (rabbit osteoclasts [1]; from the EIA and functional cell-based assay): 6–30 fold; increase in DFBMD vs vehicle (rapidly growing rabbits; 30 mg/kg oral once daily): 10%; Distal femur BMD (rapidly growing rabbits; 30 mg/kg oral once daily): 301.8 ± 4.9 mg/cm^2; Cmin ([3]; 30 mg/kg): 60 nM; AUC ([3]; 30 mg/kg): 6.1 μm*hr; Cmax ([3]; 30 mg/kg): 651 nM |
| CC(C)C[C@H](N[C@@H](c1ccc(-c2ccc(S(C)(=O)=O)cc2)cc1)C(F)(F)F)C(=O)NCC#N [Compound L-873724] | 13 ± 1 nM | 0.8 nM | 15% | 327.7 ± 7.5 mg/cm^2 | 32 nM | 7.8 μm*hr | 1370 nM | approximately 30 fold | 9% | 26 mL/min/kg | <LOD* | 0.5 μm*hr | 78 nM | 28 nM | 3.1 μm*hr | 490 nM | Distal femur BMD (rapidly growing rabbits; 1 mg/kg oral once daily): 301.2 ± 3.7 mg/cm^2; Distal femur BMD (rapidly growing rabbits; 3 mg/kg oral once daily): 310.5 ± 6.5 mg/cm^2; Cl [3, 4]: 26 mL/min/kg; Cl [3, 5]: 26 mL/min/kg |
| O=P(O)(O)C(Cl)(Cl)P(=O)(O)O [clodronate] |  |  |  |  |  |  |  |  |  |  |  |  |  |  |  |  | trabecular bone volume in the proximal tibial metaphysis vs untreated rats (growing rats): higher trabecular bone volume |
| NCCCC(O)(P(=O)(O)O)P(=O)(O)O [ALN, alendronate, reference compound] |  |  |  |  |  |  |  |  |  |  |  |  |  |  |  |  | histology of distal femoral metaphysis compared to vehicle (rapidly growing rabbits; 10 days' treatment, Masson's trichrome): increased retention of both calcified cartilage and bone tissue; DFBMD (rapidly growing rabbits; ALN 50 μg/kg SC once daily): 277.8 ± 8.4 mg/cm^2; % BMD gain (rapidly growing rabbits; ALN 50 μg/kg/day SC): 15%; DFBMD (rapidly growing rabbits; ALN 100 μg/kg SC once daily): 313.7 ± 3.9 mg/cm^2; Distal femur BMD (rapidly growing rabbits; ALN 100 μg/kg SC positive control in the L-006235 study): 300.5 ± 4.6 mg/cm^2; Distal femur BMD (rapidly growing rabbits; ALN 100 μg/kg SC positive control in the L-833905 study): 314.0 ± 9.1 mg/cm^2; Distal femur BMD (rapidly growing rabbits; ALN 100 μg/kg SC positive control in the L-873724 study): 352.8 ± 9.4 mg/cm^2; % BMD gain (rapidly growing rabbits; ALN 100 μg/kg/day SC): 16%; DFBMD of representative DXA image (rapidly growing rabbits; ALN 100 μg/kg/day): 361 mg/cm^2; DFBMD (rapidly growing rabbits; ALN 200 μg/kg SC once daily): 281.7 ± 6.4 mg/cm^2; % BMD gain (rapidly growing rabbits; ALN 200 μg/kg/day SC): 16%; DFBMD (rapidly growing rabbits; ALN 500 μg/kg SC once daily): 291.2 ± 9.4 mg/cm^2; % BMD gain (rapidly growing rabbits; ALN 500 μg/kg/day SC): 21%; trabecular bone volume (growing rats; seven days SC 0.010 mg/kg/d): increased trabecular bone volume; distal femoral metaphyseal BMD (weanling rats): increase in distal femoral metaphyseal BMD |
| CN1CCN(c2nc(-c3ccc(C(=O)NC4(C(=O)NCC#N)CCCCC4)cc3)cs2)CC1 [Compound L-006235] | 5 ± 1 nM | 0.5 nM | 15% | 303.5 ± 5.4 mg/cm^2 | 8 nM | 5.0 μm*hr | 2440 nM | approximately 30 fold | 11% | 113 mL/min/kg | 9 nM | 0.3 μm*hr | 74 nM | 15 nM | 1.0 μm*hr | 337 nM | increase in DFBMD vs vehicle (rapidly growing rabbits; 1 mg/kg oral once daily): 7%; Distal femur BMD (rapidly growing rabbits; 1 mg/kg oral once daily): 281.7 ± 4.9 mg/cm^2; Distal femur BMD (rapidly growing rabbits; 3 mg/kg oral once daily): 293.5 ± 2.8 mg/cm^2; Cl [3, 4]: 113 mL/min/kg; Cl [3, 5]: 113 mL/min/kg |
| CC(C)(F)C[C@H](N[C@@H](c1ccc(-c2ccc(S(C)(=O)=O)cc2)cc1)C(F)(F)F)C(=O)NC1(C#N)CC1 [ODN, odanacatib] | 23 ± 6 nM | 1 nM |  |  |  |  |  | approximately 30 fold | 19% | 6 mL/min/kg | 37 nM | 2.2 μm*hr | 130 nM | 88 nM | 4.1 μm*hr | 270 nM | IC50 (human CatK): 0.2 nM; IC50 (rat CatK): 112 nM; fold less potent versus rat CatK than versus human and rabbit CatK (rat CatK): more than 500 fold; IC50 (mouse CatK): 108 nM; fold less potent versus mouse CatK than versus human and rabbit CatK (mouse CatK): more than 500 fold; increase in DFBMD vs vehicle (rapidly growing rabbits; 0.3 mg/kg oral once daily): 7%; increase in DFBMD vs vehicle (rapidly growing rabbits; 1 mg/kg oral once daily): 11%; DFBMD of representative DXA image (rapidly growing rabbits; ODN 3 mg/kg): 388 mg/cm^2; AUC ([3]; 0.3 mg/kg): 0.7 μm*hr; Cl ([3]; printed in the 0.3 mg/kg dose row): 6 mL/min/kg |
| CC(O)(P(=O)(O)O)P(=O)(O)O [etidronate] |  |  |  |  |  |  |  |  |  |  |  |  |  |  |  |  | trabecular bone volume in the proximal tibial metaphysis vs untreated rats (growing rats): higher trabecular bone volume |
